Experimental data reported in US10393755B2, “Compositions and methods for treating eye infections and disease” (UNIVERSITY OF VIRGINIA PATENT FOUNDATION, priority 2014, dated 2019).
No end group written: not given here.

Legend:
[1] = test system: HCE-T cells; experiment: Lacritin accelerated autophagy and FOXO3 phosphorylation, inhibitors; type: cell-based, human
Protocol: Lacritin targeting of corneal sensory neurons. Adrenergic α2C selective antagonist MK912 inhibits lacritin accelerated autophagy in HCE-T cells, as does the syndecan-1 inhibitor xyloside. […] Activity profiles of corneal neurons before, during and 1 hr during/after 10 μM lacritin reveal a small inhibition (from ˜12 to ˜8 spikes/s) follows immediately after the application of lacritin presumably due to α2 adrenergic receptor activation which inhibits TRPM8 channels. Removal of this inhibition after 1 hr of lacritin and washout causes an enhanced excitation of dry (from ˜20 to ˜23 spikes/s) and wet response (from ˜12 to ˜16 spikes/s).

[2] = test system: HCE-T cells; experiment: Viability (MTT) / cytoprotection of IFNG/TNF stressed cells; type: cell-based, human; conditions: for Cytoprotective activity of lacritin truncation and point mutants: 10 nM, IFNG/TNF stressed cells
Protocol: Viability was monitored using the 3-(4,5-dimethyl[…])-2,5-diphenyltetrazolium bromide) (MTT) reduction assay (Invitrogen) or a Nucleocounter (New Brunswick Scientific, Edison, N.J.). Cells were seeded overnight in 24-well plates at a density of 500 cells/mm2 to give rise to ˜80% confluence the next day. Then cells were sensitized overnight in IFNG (100 units/ml) in α-MEM and treated in triplicate for 15 min with 10 nm lacritin or lacritin deletion or point mutants or with different lacritin doses in α-MEM together with TNF as described above.
Inclusion of inhibitors was simultaneous with the addition of lacritin or C-25 in all viability and other experiments except where otherwise noted. Inhibitors included PI103 (0.5 μm; EMD, Darmstadt, Germany), rapamycin (10 and 100 nm; EMD), and cyclosporin A (0.1 μm; EMD). One exception was 4-methylumbelliferyl-β-d-xylopyranoside (“xyloside”; 70 and 80 nm; Sigma), which was added during IFNG sensitization and during treatment with TNF and lacritin. The assay was completed by addition of MTT (5 mg/ml) to each well (at 37° C. for 4 h) followed by isopropanol with 0.04 n HCl and measurement at 570 nm using a reference wavelength of 630 nm. Viability was assayed in a Nucleocounter (New Brunswick Scientific).

[3] = test system: bacteria; experiment: Lacritin inhibition (colony count) assay, bacterium not given; type: cell-based; conditions: synthetic peptides
Protocol: (§1) Bacterial Growth, SYTOX Green Assays, and on Column Cleavage—E. coli (ATCC (Manassas Va.) catalog no. 10536), S. epidermidis (ATCC catalog no. 12228), and P. aeruginosa (ATCC catalog no. 9027) were grown to mid-log phase in 50 ml of Luria-Bertani (LB) medium and washed three times in phosphate buffer containing 10 mM NaCl (pH 7.2; PB—NaCl) with centrifugation. Pellets were resuspended in 1 ml of PB—NaCl.
(§2) For lacritin inhibition assays, 50 ul of bacterial pellets each diluted 1:100 in PB—NaCl were incubated for 1.5 h (37° C.) with 100 ul of lacritin, lacritin truncations, or synthetic peptides at a final concentration of 0.1-6 uM. Mixtures were diluted 1:10 in PB—NaCl before plating 100 ul in quadruplicate on LB agar plates for overnight growth at 37° C. Colonies were manually counted. In other experiments, mid-log E. coli was treated at 37° C. for 0, 1, 2, or 3 h with 2 uM lacritin or lacritin truncations or with ampicillin (5 uM) or tetracycline (2 uM). After each treatment, 100 ul was centrifuged, resuspended in 1 ml of PB—NaCl, and plated (100 ul) onto LB agar for overnight growth (37° C.) and colony counting.

[4] = type: in vitro ADME, human
Protocol: A limitation of most synthetic peptide drugs is their protease sensitivity. […] Retropepsin would inactivate LACRIPEP, while cathepsin K would have no effect. However neither protease is found in normal human tears. Nonetheless, tears are rich in other proteases. We therefore incubated LACRIPEP in normal human tears at 37° C. for 2, 4, 6 and 16 hr. For immunoblotting, we first removed all endogenous lacritin by immunodepletion. […] (FIG. 6B).

[5] = test system: E. coli; experiment: Lacritin inhibition (colony count) assay, E. coli; type: cell-based; conditions: dose response studies; read-out: Half-maximal inhibition
Protocol: as §1, §2

[6] = test system: P. aeruginosa; experiment: Lacritin inhibition (colony count) assay, P. aeruginosa; type: cell-based; conditions: dose response studies; read-out: Half-maximal inhibition
Protocol: as §1, §2

[7] = test system: HCE-T cells; experiment: FOXO3 translocation assay in IFNG/TNF stressed HCE-T cells; type: cell-based, human; conditions: 10 nM, interferon-γ and TNF stressed HCE-T cells
Protocol: For FOXO3 translocation assays, HCE-T cells were grown in triplicate to subconfluence (˜50%) on coverslips in α-MEM (5.54 mm glucose), sensitized overnight in IFNG (100 units/ml; Roche Applied Science), and treated for 15 min with normal or dry eye tears diluted 1:100 in α-MEM together with TNF (50 ng/ml; PeproTech, Rocky Hill, N.J.) without or with 10 nm lacritin or C-25. Cells were washed, fixed with 4% paraformaldehyde, and immunostained for FOXO3 (1:200; Millipore, Billerica, Mass.) followed by goat anti-rabbit secondary antibody and visualization on a Zeiss LSM 700 microscope.

[8] = molecular target: T1, syndecan-1 (Homo sapiens, UniProt P18827, L136Q); experiment: Binding to syndecan-1
T1 sequence (P18827 23-310 L136Q): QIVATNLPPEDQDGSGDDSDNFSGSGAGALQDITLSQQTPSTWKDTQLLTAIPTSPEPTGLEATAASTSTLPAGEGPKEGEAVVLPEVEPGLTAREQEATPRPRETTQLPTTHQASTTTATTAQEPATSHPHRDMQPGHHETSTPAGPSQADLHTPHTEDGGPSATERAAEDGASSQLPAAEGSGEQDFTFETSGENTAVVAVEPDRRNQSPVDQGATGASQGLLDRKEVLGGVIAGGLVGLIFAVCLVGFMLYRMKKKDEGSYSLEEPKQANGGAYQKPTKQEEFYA

[9] = Phase behavior and nanoparticle formation (optical density, DLS, TEM); type: physicochemical; conditions: optical density
Protocol: The phase diagram for LSI fusion protein was characterized by optical density change at 350 nm as a function of solution temperature using a DU800 UV-Vis Spectrophotometer (Beckman Coulter, Brea, Calif.). Tt was defined at the point of the maximum first derivative. Self-assembly of nanoparticles was measured using dynamic light scattering (DLS) using a DynaPro-LSR Plate Reader (Wyatt Technology, Santa Barbara, Calif.). Light scattering data were collected at regular temperature intervals (1° C.) as solutions were heated from 5 to 50° C. The results were analyzed using a Rayleigh sphere model and fitted into a cumulant algorithm based on the sum-of-squares value.
The TEM imaging was carried out on a FEI Tecnai 12 TWIN microscope (Hillsboro, Oreg.) at 100 kV. Briefly, a 100 uM solution (5 uL) was initially deposited on a copper grid with carbon film (CF400-Cu, Election Microscopy Sciences, Hatfield, Pa.). After removing the excess amount of solution with filter paper, the samples were negatively stained with 2% uranyl acetate, followed by removing excess uranyl acetate after 30 s. b The samples were then dried under room temperature for at least 3 h before use in imaging.

CN1CC[C@]2(CCN3CCc4c(oc5ccccc45)[C@@H]3C2)N(C)C1=O [MK912]
Effect on lacritin stimulated FOXO3 phosphorylation [1]: inhibit | Effect on lacritin accelerated autophagy ([1]; HCE-T cells): inhibits

Cc1cc(=O)oc2cc(O[C@@H]3OC[C@@H](O)[C@H](O)[C@H]3O)ccc12 [xyloside, 4-methylumbelliferyl-β-d-xylopyranoside]
Effect on lacritin stimulated FOXO3 phosphorylation [1]: inhibit | Effect on lacritin cytoprotective activity ([2]; cells cultured overnight in xyloside): completely abrogated

AKAGKGMHGGVPGG (listed as Homo sapiens) [N-80/C-25]
Colonies with synthetic peptides [3]: colonies were abundant

Ac-KQFIENGSEFAQKLLKKFS-NH2 [N-94/C-6, KQFIENGSEFAQKLLKKFS]
Epitopes by immunoblotting after incubation in tears [4]: loses epitopes | Stability relative to LACRIPEP [4]: not as stable | Bactericidal activity of synthetic peptides [3]: slightly so | Bactericidal activity of synthetic peptides ([3]; listed as SEQ ID NO: 5): substantially reduced the bactericidal activity | Activity of synthetic peptide relative to lacritin ([2]; generated synthetically): as potent as lacritin

Ac-KQFIENGSEFAQKLLKKFSLLKPWA (N-terminus assumed) [LACRIPEP]
Time stable in human tears (immunoblot) [4]: at least 16 hr

FAQKLLKKFSLLKPWA [N-104]
IC50 [5]: ~1 µM | IC50 [6]: 1 to 1.5 µM | Bactericidal activity of synthetic peptides [3]: fully active

LKSIVEKSILLTEQALAKAGKGMH (listed as Homo sapiens) [N-64/C-31]
Colonies with synthetic peptides [3]: colonies were abundant

B1: Cross-linked lacritin: lacritin monomer cross-linked into inactive multimers by tissue transglutaminase (protein)
chain: EDASSDSTGADPAQEAGTSKPNEEISGPAEPASPPETTTTAQETSAAAVQGTAKVTSSRQELNPLKSIVEKSILLTEQALAKAGKGMHGGVPGGKQFIENGSEFAQKLLKKFSLLKPWA
FOXO3 cytoplasmic staining (pro-survival activity) [7]: less active | FOXO3 cytoplasmic staining (pro-survival activity) ([7]; listed as tissue transglutaminase polymerized lacritin): inactive | Binding to syndecan-1 [8]: substantially less

B2: L108S/L109S/F112S: lacritin triple point mutant (protein, UniProt Q9GZZ8 20-138, looked up, variant L108S L109S F112S)
Extracellular glycoprotein …: EDASSDSTGADPAQEAGTSKPNEEISGPAEPASPPETTTTAQETSAAAVQGTAKVTSSRQELNPLKSIVEKSILLTEQALAKAGKGMHGGVPGGKQFIENGSEFAQKSSKKSSLLKPWA
Cytoprotective activity of lacritin truncation and point mutants [2]: significantly less active

B3: I98S: lacritin point mutant (protein, UniProt Q9GZZ8 20-138, looked up, variant I98S)
Extracellular glycoprotein …: EDASSDSTGADPAQEAGTSKPNEEISGPAEPASPPETTTTAQETSAAAVQGTAKVTSSRQELNPLKSIVEKSILLTEQALAKAGKGMHGGVPGGKQFSENGSEFAQKLLKKFSLLKPWA
Cytoprotective activity of lacritin truncation and point mutants [2]: significantly less active

B4: F112S: lacritin point mutant (protein, UniProt Q9GZZ8 20-138, looked up, variant F112S)
Extracellular glycoprotein …: EDASSDSTGADPAQEAGTSKPNEEISGPAEPASPPETTTTAQETSAAAVQGTAKVTSSRQELNPLKSIVEKSILLTEQALAKAGKGMHGGVPGGKQFIENGSEFAQKLLKKSSLLKPWA
Cytoprotective activity of lacritin truncation and point mutants [2]: significantly less active

B5: V69S: lacritin point mutant (protein, UniProt Q9GZZ8 20-138, looked up, variant V69S)
Extracellular glycoprotein …: EDASSDSTGADPAQEAGTSKPNEEISGPAEPASPPETTTTAQETSAAAVQGTAKVTSSRQELNPLKSISEKSILLTEQALAKAGKGMHGGVPGGKQFIENGSEFAQKLLKKFSLLKPWA
Cytoprotective activity of lacritin truncation and point mutants [2]: unaffected

B6: I73S: lacritin point mutant (protein, UniProt Q9GZZ8 20-138, looked up, variant I73S)
Extracellular glycoprotein …: EDASSDSTGADPAQEAGTSKPNEEISGPAEPASPPETTTTAQETSAAAVQGTAKVTSSRQELNPLKSIVEKSSLLTEQALAKAGKGMHGGVPGGKQFIENGSEFAQKLLKKFSLLKPWA
Cytoprotective activity of lacritin truncation and point mutants [2]: unaffected

B7: F104S: lacritin point mutant (protein, UniProt Q9GZZ8 20-138, looked up, variant F104S)
Extracellular glycoprotein …: EDASSDSTGADPAQEAGTSKPNEEISGPAEPASPPETTTTAQETSAAAVQGTAKVTSSRQELNPLKSIVEKSILLTEQALAKAGKGMHGGVPGGKQFIENGSESAQKLLKKFSLLKPWA
Cytoprotective activity of lacritin truncation and point mutants [2]: significantly less active

B8: L65S: lacritin point mutant (protein, UniProt Q9GZZ8 20-138, looked up, variant L65S)
Extracellular glycoprotein …: EDASSDSTGADPAQEAGTSKPNEEISGPAEPASPPETTTTAQETSAAAVQGTAKVTSSRQELNPSKSIVEKSILLTEQALAKAGKGMHGGVPGGKQFIENGSEFAQKLLKKFSLLKPWA
Cytoprotective activity of lacritin truncation and point mutants [2]: unaffected

B9: LS96: lacritin fused to soluble ELP (VPGSG)96; thermally nonresponsive control (protein)
chain: GEDASSDSTGADPAQEAGTSKPNEEISGPAEPASPPETTTTAQETSAAAVQGTAKVTSSRQELNPLKSIVEKSILLTEQALAKAGKGMHGGVPGGKQFIENGSEFAQKLLKKFSLLKPWAGLVPRGSGVPGSGY
modifications: ELP lacritin fusion construct; (129)..(133) the sequence VPGSG is directly repeated 96 times
notes: lacritin fused to soluble ELP (VPGSG)96; thermally nonresponsive control
Phase transitions in phosphate buffered saline [9]: does not display any observable phase transitions
